Results on one compound are retold here after patent US10399958B2, “PPAR agonists, compounds, pharmaceutical compositions, and methods of use thereof” (Mitobridge, Inc., priority 2015, dated 2019).

Each structure is given as a SMILES string. Read-outs that look alike come from different tables or passages of the source.

In series [1] the test system is DMD human skeletal muscle cells. Put plainly: Mitochondrial biogenesis (BrdU labeling). It counts as cell-based. Particulars: DMD patient cells, treated from day 4 of differentiation, FIG. 2. Here is the method:
DMD human skeletal muscle cells were plated into 96 well plates. Media was changed to Differentiation Medium and cells were allowed to differentiate for 7 days. […] Three days later cells were labeled with bromodeoxyuridine (BrdU) in culture media for 2 hours. Following the incubation, cells were washed, and then incubated with anti-BrdU antibody overnight at 4° C. The next day, samples were washed incubated with anti-mouse IgG HRP for 45 min at 37° C., and then washed. Optical density was measured at 450 nm wavelength on a SpectraMax M5 (Molecular Devices).
Data was analyzed in Graph Pad Prism. Normality of distribution was determined by D'Agostino-Pearson omnibus normality test. If the samples were normally distributed, they were analyzed by One-Way ANOVA followed by a post hoc Dunnett's test vs DMSO control cells or unpaired two tailed T-test. If the samples were not normally distributed, then a Kruskal-Wallis test was used to determine significance.
(In general: Incorporation of labelled thymidine or its analogues reports DNA synthesis.)

The subject of the next series is mdx mouse diaphragm. Put plainly: Diaphragm fibrosis by hydroxyproline assay in mdx mice. It counts as in vivo. As to conditions: FIG. 10. Here is the method: Diaphragm samples were harvested carefully and the central tendon was cut away to ensure hydroxyproline signal was derived from muscle and not collagen-rich tendon. Hydroxyproline assay was performed according to the manufacturers' instructions (Sigma-Aldrich Hydroxyproline Assay Kit). Final values were calculated as follows: […]
(§1) Diaphragm weights, histology scores and immunofluorescence data were tested using a parametric test if normality was confirmed by Shapiro-Wilk normality test (unpaired t-test for 2 groups or One way ANOVA followed by post hoc Dunn's multiple comparison testing versus the mdx vehicle group for 3 groups) and a Mann-Whitney test (2 groups) or Kruskal-Wallis One-Way ANOVA (non-parametric) followed by post hoc Dunn's multiple comparison testing versus the mdx vehicle group (3 groups) if the data were not normally distributed.
Diaphragms were evaluated for fibrosis by measuring hydroxyproline, an amino acid unique to collagen, in digested muscle. Mdx mice were confirmed to have increased fibrosis versus non-dystrophic control mice (FIG. 9).

For a further series, the system named is mdx mouse muscle. Put plainly: Histology pathology assessment of muscle in mdx mice. It counts as in vivo.
Excerpt: Similar to the muscle pathology in Duchenne Muscular Dystrophy, mdx mice have dystrophic pathologies in skeletal muscle that is apparent soon after birth. Key aspects of this phenotype evident by pathology are the loss of myofibers through apoptosis/necrosis, evidence of regenerating muscle fibers, infiltrating immune cells, and increased muscle fibrosis.
Animals and dosing were as previously described. See Example 4.
Quadriceps, gastrocnemius and tibialis anterior muscles were harvested at necropsy, and fixed by immersion in 10% neutral buffered formalin and embedded in paraffin. Tissues were sectioned at […] from each block and slides were evaluated by a board certified veterinary pathologist. Histopathologic evaluation included qualitative and semi-quantitative evaluation for myofiber necrosis, inflammation, myofiber regeneration and interstitial fibrosis, as outlined in Tables 1, 2, and 3, respectively.
as §1

Series [2] has as its system mdx mouse quadriceps muscle. Nature of the series: Immunofluorescent (IgM) assessment of muscle necrosis in mdx mice. It counts as in vivo. As to conditions: IgM immunofluorescence, FIG. 5. How it is done: Precut paraffin section slides were deparaffinized and incubated with AlexaFluor 488 conjugated wheat germ agglutinin followed by an incubation with Alexa 568 conjugated anti-mouse IgM (abcam, Product #ab175702). Slides were washed and mounted with coverslips using ProLong Diamond Antifade Mountant with DAPI. Imaging was performed on a Nikon fluorescent microscope using a 40× objective and composite images were stitched together using NIS Elements Software, V4.4 (Nikon, Tokyo, Japan). Analysis was completed using Image J 1.50b, Java 1.8.0_60 (64 bit).
as §1
Quadriceps muscle sections were labeled fluorescently to detect IgM antibody accumulation within damaged myofibers, an indication of loss of myofiber integrity and active necrosis. Each muscle section was imaged in its entirety and the number and size of necrotic regions was measured. […]

A further series concerns mdx mouse. Put plainly: Endurance running assay (treadmill) in mdx mouse model of Duchenne Muscular Dystrophy. It counts as in vivo. As to conditions: mdx mice, 10 or 30 mg per kg PO, 34-35 days, FIG. 3. The source says:
PPARδ is activated in response to exercise where it will elicit an increase in fatty acid utilization. Duchenne Muscular Dystrophy is a progressive, early-onset degenerative muscle disease with associated muscle function deficits resulting from the loss of the protein dystrophin. Fatty acid metabolism and altered mitochondrial function are reported to be an aspect of the disease.
C57BL/10ScSn-Dmdmdx/J and C57BL/10ScSnJ mice ˜5-7 weeks of age were received and housed singly in polycarbonate cages. Animals were fed standard chow and had access to feed and water at all times ad libitum. […] Vehicle was dosed for control groups. All the animals were dosed by oral gavage (PO) for 34-35 days. The mice were dosed at 8 AM on the last in-life study day with the necropsy started 2 hours after the final dose.
Mice were acclimated to a moving belt treadmill in a series of acclimation runs before evaluation for overall endurance at a set maximal speed. Each mouse was run in a separate lane that contained an electric stimulating grid. The number of visits to the electric stimulating grid and the number of shocks each animal received were recorded by the instrument and a technician evaluated the animal during the run to determine the time and distance to exhaustion. The maximum speed for all the three endurance runs was capped at 20 m/min. […]

Series [3] has as its system Sprague-Dawley rat acute kidney injury. Nature of the series: Ischemia-reperfusion kidney injury in rats, plasma creatinine. It counts as in vivo. Particulars: 30 mg/kg orally 4 hours after surgery, blood 24 hours after reperfusion, FIG. 11. Here is the method:
Sprague-Dawley male rats approximately 280-300 g, with ad libitum access to standard feed and water were used in these experiments. Rats were anesthetized with isoflurane and placed ventrally on a temperature controlled heated surgical platform. A skin incision was made on the dorsal surface, exposing both kidneys through flank incisions. Vascular clips were applied to both renal pedicles and occlusion lasted 45 minutes. After 45 min, the clips were removed, kidneys were monitored for successful reperfusion, and surgical sites were sutured. The sham group was subjected to similar surgical procedures, except that the occluding clamps were not applied. Four independent studies, testing each compound were performed. Compounds were formulated as a fresh daily suspension in 0.25% sodium carboxymethyl-cellulose, 0.25% Tween-80 in purified water. Compounds were dosed orally at 30 mg/kg 4 hours after animals awoke from surgery and sham surgery and IRI control animals were similarly dosed with vehicle.
Twenty-four (24) hours after reperfusion, blood was collected in K2 EDTA tubes by retro-orbital bleeding from all groups under mild isoflurane anesthesia. Plasma was separated by centrifugation at 3000 rpm for 10 minutes at 4° C. Plasma creatinine was analyzed using a fully automated clinical biochemistry analyzer (Siemens Dimension® Xpand® Plus Integrated Chemistry System)
Creatinine was tested for normal distribution in all groups via a D'Agostino-Pearson omnibus normality test and a Shapiro-Wilk normality test. Normally distributed data was subjected to an unpaired, two-tailed t test. Non-normally distributed data was subjected to a Mann-Whitney test (non-parametric). Statistical significance is determined by p<0.05 of IRI-vehicle compared to compound treated groups.

Series [4] in a line: Pharmacokinetic (PK) screening (i.v.) in male CD1 mice. It counts as in vivo, mouse. Particulars: male, CD1, mouse, plasma, iv, 1 mg/kg, I.V. 1 mg/kg dose, plasma. How it is done:
In this example, the intravenous PK profile of several PPARδ agonists disclosed herein in male CD1 mice was determined. Similar methods can be used to analyze other compounds provided herein. All compounds were administered separately to CD1 mice at 1 mg/kg (i.v.), except the comparator compound to 2c was administered at 3 mg/kg (i.v.), as noted below.

For the compound `Cc1cnc(-c2ccc(C(F)(F)F)cc2)n1Cc1ccccc1OCCC[C@@H](C)CC(=O)O` [Compound 2d, (R)-3-methyl-6-(2-((5-methyl-2-(4-(trifluoromethyl)phenyl)-1H-imidazol-1-yl)methyl)phenoxy)hexanoic acid], the Mitochondrial biogenesis result in series [1] is “increased in a dose-dependent manner”. The “Diaphragm fibrosis (hydroxyproline)” value in the series with mdx mouse diaphragm is recorded as “reduced fibrosis”. Besides, the “Pathology scored necrosis, quadriceps” value in the series with mdx mouse muscle (10 or 30 mg per kg PO, 34-35 days, FIG. 4) is reported as “Decreased necrosis”. For the same compound, the “Inflammation, quadriceps muscle” value with mdx mouse muscle (FIG. 6) is “Decreased inflammation”. For the same compound, the Quadriceps muscle regeneration result with mdx mouse muscle (FIG. 7) is listed as “increases”. Further, the Diaphragm muscle necrosis result in the series with mdx mouse muscle (FIG. 8) is reported as “reduced diaphragm necrosis”. Further, the “Necrotic region size, quadriceps” value in series [2] is on record as “decreased”. Besides, the Treadmill running distance result in the series with mdx mouse is on record as “increased distance over mdx vehicle treated group mice”. Besides, in series [3], the Plasma creatinine result is listed as “reduce plasma creatinine”. Also, the values for the clearance in series [4] (read-out: CL) and in series [4] (read-out: High or Low CL) were 25 mL/min/kg and less than 85 mL/min/kg, respectively.
